Here are results for eight compounds from publication PMC5570892, “Indole-based perenosins as highly potent HCl transporters and potential anti-cancer agents” (Scientific Reports, 2017).

One assay concerns MDA-MB-231 cells. Briefly: MTT cell viability assay. Type of assay: cell-based. The note with it: Homo sapiens, error from three repeats in brackets. The procedure: Herein, we carried out further in vitro studies at the University of Barcelona for the full library of perenosins. Single dose screening for cell viability using the methylthiazoletetrazolium (MTT) colorimetric assay over five different cell lines (cancer cells MCF-7, MDA-MB-231, A549 and SW620, and non-cancerous human cells MCF-10A) was conducted.
While perenosin 5, with pentyl substituent at R3, has similar cell viability effects as 1d, bis-indole perenosin 7 with pentyl substituent at R1 has a moderate degree of late onset by a factor of 7.
S11.1 Cell Lines and Culture Conditions
The human cell lines were obtained from the American Type Culture Collection (ATCC, Manassas VA). Breast adenocarcinoma MDA-MB-231 and MCF-7 cells were maintained in DMEM:F12 media (1:1; Biological Industries, Beit Haemek, Israel), and 10 µg/ml insulin and 50 µM sodium pyruvate from Sigma-Aldrich Chemical Co. (St. Louis, MO) were added to MCF-7 cells. Lung adenocarcinoma A549 and colorectal adenocarcinoma SW620 cells were cultured in DMEM media. All were supplemented with 10% foetal bovine serum (FBS; Invitrogen-Life Technologies, Carlsbad, CA) and 100 U/mL penicillin, 100 µg/mL streptomycin and 2 mM L-glutamine, all from Biological Industries.
Mammary epithelial MCF-10A cells were maintained in DMEM:F12 media supplemented with 5% horse serum (Life Technologies), 20 ng/ml EGF, 0.5 µg/ml Hydrocortisone, 100 ng/ml Cholera toxin, 10 µg/ml insulin all from Sigma-Aldrich and 100 U/ml penicillin, 100 µg/ml streptomycin, and 2 mM L- glutamine (Biological Industries). Cells were grown at 37 °C under a 5% CO2 atmosphere.
S11.2 Cell Viability Assays
Cell viability was evaluated using the methylthiazoletetrazolium (MTT) colorimetric assay. Cancer cells (MCF-7, MDA-MB-231, A549 and SW620) or non-cancerous human cells MCF-10A cells were harvested (10^4 cells/well) in 96-well plates in a final volume of 100 µl and allowed to grow overnight.
After 24 h, vehicle solution (DMSO) or experimental compounds were added at 10 µM (single point experiment) or at different ranging concentrations (0.8-100 µM) to the assay plate and were incubated for 24 or 72 h. Then, 10 µl of MTT (5 mg/ml; Sigma-Aldrich) were added and the plates were incubated for 4 h at 37°C. 100 µl of DMSO (Sigma-Aldrich) were added to dissolve crystals and the reading was taken spectrophotometrically at 570 nm using a multi-well plate reader (Multiskan FC, Thermo Scientific, Waltham, MA, USA). Cell viability and inhibitory concentration (IC) values were obtained using GraphPad Prism v5.0 (Graphpad Software, San Diego, CA, USA). All data are shown as the mean value ± standard deviation (S.D.) of three independent experiments.
For orientation: Tetrazolium assays rely on reduction of a dye to a coloured formazan, in cell work by metabolically active cells.

Assay [1] can be described thus: Cl^−/NO3^− ISE assay in POPC:cholesterol (7:3) vesicles. Type of assay: biochemical. The note with it: 0.1 mol% loading, pH 7.2. The procedure:
To further probe other aspects of transmembrane transport mechanism of perenosins, a variety of studies were employed. […] Using the same conditions for sulfate transport, and adding a bicarbonate pulse at 120 s to give a final external bicarbonate concentration of 40 mM, allowed observation of potential Cl^−/HCO3 ^− antiport elicited by 1d and 2–8; no Cl^− efflux was detected, presumably due to the basicity of bicarbonate anion preventing protonation of the imine-N2. Finally, preincorporation of 1d and 2–6 into POPC vesicles followed by performing a similar NMDG-Cl assay, and subsequent dilution of the resulting lipid solution, investigated how perenosins behave in a lipid membrane environment. […] See Supplementary Information for more details of results and experimental details of these assays.
S10. Anion Transport Studies
S10.1. General Procedure for the ISE Assay
Unilamellar vesicles were prepared using previously reported literature procedures7-9. A lipid film of POPC (1-palmitoyl-2-oleoyl-sn-glycero-3-phosphocholine) or POPC:cholesterol (7:3 molar ratio) was prepared from a chloroform solution under reduced pressure and then dried under vacuum for 4 or more hours. The lipid film was rehydrated by vortexing with an internal solution of buffered metal chloride salt (usually 489 mM MCl). The lipid suspension was then subjected to 9 freeze-thaw cycles and left to rest at room temperature for 30 minutes. After this, the suspension was extruded 25 times through a 200 nm polycarbonate membrane resulting in unilamellar vesicles of a mean diameter of 200 nm. […]
The lipid stock was diluted with the external buffer solution to a standard volume (5 mL), to afford a solution with a lipid concentration of 1 mM. The compounds were added as a DMSO solution (10 μL) at the start of the experiment and the resulting chloride efflux was monitored using a chloride selective electrode over 5 minutes. After this time, detergent (50 μL of Triton X-100 (11 w%) in H2O:DMSO (7:1 v/v)) was added to lyse the vesicles and after 7 minutes a final chloride efflux reading was taken. […]

Where [2] appears, read: MDA-MB-231, 24 h exposure, read-out: IC50 (24 h).
Setting [3] is: MDA-MB-231, 72 h exposure, read-out: IC50 (72 h).

Where two headings read alike, the source gives them in different places.

With `CCCCCc1cc2cc(C(F)(F)F)cc(/N=C/c3[nH]c(C)cc3C)c2[nH]1` [Perenosin 3], the IC50 (usually the concentration that gives 50% inhibition) in the assay on MDA-MB-231 cells (setting [2]) was > 100 µM; in the assay on MDA-MB-231 cells (setting [3]) it was 9.5 µM.
On to `CCCCCc1cc2cc(C)cc(/N=C/c3[nH]c4ccccc4c3C)c2[nH]1` [Perenosin 8], for which, in assay [1], the “chloride efflux in POPC:Cholesterol (7:3) vesicles” value is listed as “no chloride efflux”. Further, the IC50 is > 100 µM in the assay on MDA-MB-231 cells (setting [2]) and 38 µM in the assay with MDA-MB-231 cells (setting [3]).
The matching figures for `CCCCCc1cc2cc(C)cc(/N=C/c3[nH]c(C)cc3C)c2[nH]1` [Perenosin 2]: 70%, > 100 µM and 11.3 µM.
As to `CCCc1cc2cc(C)cc(/N=C/c3[nH]c(C)cc3C)c2[nH]1` [Perenosin 4], the results for the IC50 in the assay on MDA-MB-231 cells (setting [2]) and in the assay on MDA-MB-231 cells (setting [3]) were > 100 µM and 9.2 µM, respectively.
The corresponding values for `CCCCCc1c(C)[nH]c(/C=N/c2cc(C)cc3cc[nH]c23)c1C` [Perenosin 5] are 20.3 µM and 14 µM.
For `CCCCCc1cc(/N=C/c2[nH]c3ccccc3c2C)c2[nH]ccc2c1` [Perenosin 7], the “chloride efflux in POPC:Cholesterol (7:3) vesicles” value in assay [1] is “no chloride efflux”. Moreover, the concentration for half-maximal inhibition (IC50) was 73.8 µM in the assay on MDA-MB-231 cells (setting [2]) and 11 µM with MDA-MB-231 cells (setting [3]).
For `CCCCCc1cc(/N=C/c2[nH]c(C)cc2C)c2[nH]ccc2c1` [Perenosin 1d], the values for the IC50 in the assay on MDA-MB-231 cells (setting [2]) and in the assay on MDA-MB-231 cells (setting [3]) were 25.2 µM and 16.6 µM, respectively.
The matching figures for `CCCCCc1cc2cc(C)cc(/N=C/c3[nH]c(C)c(CCCCC)c3C)c2[nH]1` [Perenosin 6]: > 100 µM and 4.2 µM.
